In patent US6468976B1 (AstraZeneca AB, priority 2001, dated 2002):

Columns and labels:
[1] = stability / hygroscopicity on standing at ambient conditions; format: physicochemical; details: for hygroscopicity / stability at room temperature and humidity: standard room temperature and humidity; for stability under ambient conditions: thermogravimetric analysis after 5 hours standing at ambient conditions
Description: The partially dehydrated material was allowed to stand for about 5 hours.

[2] = cited from earlier work
crystal size by SEM = format: physicochemical
Description: In contrast, the crystals of monohydrate form 2 are much smaller, and in a narrower size range, than those of monohydrate form 1, typically 5 μm or less in edge length.

Structure (SMILES) | hygroscopicity / stability at room temperature and humidity [1] | stability under ambient conditions [1] | further results
NCCCC[C@H](N[C@@H](CCc1ccccc1)C(=O)O)C(=O)N1CCC[C@H]1C(=O)O.O [Preparation 3] | strongly hygroscopic | regained the lost weight and to have become a dihydrate | 
NCCCC[C@H](N[C@@H](CCc1ccccc1)C(=O)O)C(=O)N1CCC[C@H]1C(=O)O [lisinopril, 1-(N^2-[(S)-1-carboxy-3-phenylpropyl]-L-lysyl)-L-proline] |  |  | time to peak serum concentrations ([2]; following oral administration): ≤ 7 h; effective half-life of accumulation ([2]; on multiple dosing): about 12.6 hours
NCCCC[C@H](N[C@@H](CCc1ccccc1)C(=O)O)C(=O)N1CCC[C@H]1C(=O)O [monohydrate lisinopril form 1, 1-(N^2-[(S)-1-carboxy-3-phenylpropyl]-L-lysyl)-L-proline] | stable at a standard room temperature and humidity | stable under ambient conditions | crystal size (length / edge length) (crystal size by SEM; listed as monohydrate form 1): 50 to 500 μm
NCCCC[C@H](N[C@@H](CCc1ccccc1)C(=O)O)C(=O)N1CCC[C@H]1C(=O)O [monohydrate lisinopril form 2, 1-(N^2-[(S)-1-carboxy-3-phenylpropyl]-L-lysyl)-L-proline] |  |  | crystal size (length / edge length) (crystal size by SEM; listed as monohydrate form 2): ≤ 5 μm
